Measured values as given in ChEMBL document CHEMBL1145368, “Directed molecular screening for RecA ATPase inhibitors” (Bioorg Med Chem Lett, 2007).
The source made the active and inactive calls. The rule behind the calls is not given here.

Experiments:
[1] = system: Escherichia coli; assay: (§1) Inhibition of Escherichia coli RecA by ADP-linked fluorescent ATPase assay
[2] = as §1
[3] = system: Escherichia coli; assay: Inhibition of RecA-mediated DNA strand exchange reaction assessed as abrogation of nicked circular dsDNA formation at 100 uM

Activity [1] | IC50 [2] [nM] | Activity [3] | SMILES
Active | – | – | Nc1c(/N=N/c2ccc(-c3ccc(/N=N/c4cc(S(=O)(=O)O)c5ccccc5c4N)cc3)cc2)cc(S(=O)(=O)O)c2ccccc12
– | 2000 | Active | Cc1ccc(C(=O)Nc2ccc(S(=O)(=O)O)c3cc(S(=O)(=O)O)cc(S(=O)(=O)O)c23)cc1NC(=O)c1cccc(NC(=O)Nc2cccc(C(=O)Nc3cc(C(=O)Nc4ccc(S(=O)(=O)O)c5cc(S(=O)(=O)O)cc(S(=O)(=O)O)c45)ccc3C)c2)c1 [SURAMIN]
Active | – | – | O=S(=O)(O)c1cccc2c(-c3ccc(Nc4ccccc4)c4c(S(=O)(=O)O)cccc34)ccc(Nc3ccccc3)c12
inactive | – | – | COc1cc(/C=C/C(=O)CC(=O)/C=C/c2ccc(O)c(OC)c2)ccc1O
